In US20070219186A1, “Pyrazolo[1,5-A]pyrimidine derivatives and methods of use thereof” (priority 2006, published 2007):
Like-named read-outs stand apart in the source and are kept apart here.

Target: T1, human B-Raf (Homo sapiens, UniProt P15056)
T1 construct: Flag; GST; made in house; host or cells: Sf9 insect cells (B-Raf); E. coli (MEK1-GST)
Assay: B-Raf Kinase to MEK1 ELISA
Type: biochemical
Settings: for inhibition at 10 µM: read-out: % Inhib./10 uM
How it was run: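 Read-out is a DELFIA europium signal from phospho-MEK1 (Ser217/221) antibody after capture of GST-MEK1 (50 nM final) on anti-GST plates. Phosphorylation comes from Sf9-expressed Flag/GST human B-Raf (~20 ng) with ATP/MgCl2, 60 min RT, pH 7.2 MOPS.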

[1] = median, cpd concentrations from 10 μM to 30 nM in half log dilutions, read-out: Median IC50

T1 sequence (P15056 whole entry): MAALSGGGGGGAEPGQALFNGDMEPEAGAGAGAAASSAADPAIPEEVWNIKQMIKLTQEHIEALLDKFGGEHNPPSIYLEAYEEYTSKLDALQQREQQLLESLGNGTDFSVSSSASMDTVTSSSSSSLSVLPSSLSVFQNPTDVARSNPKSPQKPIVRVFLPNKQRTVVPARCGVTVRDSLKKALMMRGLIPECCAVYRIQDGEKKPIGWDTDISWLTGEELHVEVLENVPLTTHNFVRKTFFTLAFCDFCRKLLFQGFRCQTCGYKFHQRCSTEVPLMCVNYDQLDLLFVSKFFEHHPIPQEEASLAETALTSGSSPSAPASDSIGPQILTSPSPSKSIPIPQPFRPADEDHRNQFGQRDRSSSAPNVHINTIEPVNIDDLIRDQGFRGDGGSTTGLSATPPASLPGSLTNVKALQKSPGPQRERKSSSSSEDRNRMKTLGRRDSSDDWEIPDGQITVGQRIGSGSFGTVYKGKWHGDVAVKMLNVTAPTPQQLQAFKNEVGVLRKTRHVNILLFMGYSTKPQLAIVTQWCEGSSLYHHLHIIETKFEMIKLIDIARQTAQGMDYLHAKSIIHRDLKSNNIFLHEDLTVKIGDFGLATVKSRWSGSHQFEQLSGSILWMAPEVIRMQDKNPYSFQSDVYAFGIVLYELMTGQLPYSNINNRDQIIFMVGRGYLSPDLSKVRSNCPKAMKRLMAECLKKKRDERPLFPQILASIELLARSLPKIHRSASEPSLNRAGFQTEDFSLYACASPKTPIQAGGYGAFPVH

For `COC(=O)c1cccc(-c2cc3nccc(-c4cccc(NC(=O)c5cccc(C(F)(F)F)c5)c4)n3n2)c1` [Example 141, methyl 3-[7-(3-{[3-(trifluoromethyl)benzoyl]amino}phenyl)pyrazolo[1,5-a]pyrimidin-2-yl]benzoate], the IC50 [1] was over 10 µM and the inhibition at 10 µM was 32%.

`O=C(Nc1cccc(-c2ccnc3c(Br)cnn23)c1)Nc1ccc(Cl)c(C(F)(F)F)c1` [Example 143, N-[3-(3-bromopyrazolo[1,5-a]pyrimidin-7-yl)phenyl]-N′-[4-chloro-3-(trifluoromethyl)phenyl]urea] was tested, and the IC50 [1] was 0.14 µM and the inhibition at 10 µM was 92%.

Work on `O=C(Nc1cccc(-c2ccnc3cc(-c4ccncc4)nn23)c1)c1ccccc1` [Example 144, N-[3-(2-pyridin-4-ylpyrazolo[1,5-a]pyrimidin-7-yl)phenyl]benzamide] yielded an IC50 [1] of over 10 µM and an inhibition at 10 µM of 15%.

`O=C(Nc1cccc(-c2ccnc3cc(-c4ccncc4)nn23)c1)c1ccccc1Cl` [Example 145, 2-chloro-N-[3-(2-pyridin-4-ylpyrazolo[1,5-a]pyrimidin-7-yl)phenyl]benzamide] gave an IC50 [1] of over 10 µM and an inhibition at 10 µM of 24%.

`COc1cccc(C(=O)Nc2cccc(-c3ccnc4cc(-c5ccncc5)nn34)c2)c1` [Example 146, 3-methoxy-N-[3-(2-pyridin-4-ylpyrazolo[1,5-a]pyrimidin-7-yl)phenyl]benzamide] gave an IC50 of 4 µM.

For `Cc1cccc(C(=O)Nc2cccc(-c3ccnc4cc(-c5ccncc5)nn34)c2)c1` [Example 147, 3-methyl-N-[3-(2-pyridin-4-ylpyrazolo[1,5-a]pyrimidin-7-yl)phenyl]benzamide], the IC50 [1] was 1.4 µM and the inhibition at 10 µM was 66%.

With `Cc1ccc(C(=O)Nc2cccc(-c3ccnc4cc(-c5ccncc5)nn34)c2)cc1` [Example 148, 4-methyl-N-[3-(2-pyridin-4-ylpyrazolo[1,5-a]pyrimidin-7-yl)phenyl]benzamide] the IC50 [1] was over 10 µM and the inhibition at 10 µM was 20%.

For `O=C(Nc1cccc(-c2ccnc3cc(-c4ccncc4)nn23)c1)c1ccc(Cl)c(Cl)c1` [Example 149, 3,4-dichloro-N-[3-(2-pyridin-4-ylpyrazolo[1,5-a]pyrimidin-7-yl)phenyl]benzamide], the IC50 was 1.25 µM and the inhibition at 10 µM was 72%.

For `O=C(Nc1cccc(-c2ccnc3cc(-c4ccncc4)nn23)c1)c1cccc(Cl)c1` [Example 150, 3-chloro-N-[3-(2-pyridin-4-ylpyrazolo[1,5-a]pyrimidin-7-yl)phenyl]benzamide], the IC50 was 1.1 µM.

In the case of `O=C(Nc1cccc(-c2ccnc3cc(-c4ccncc4)nn23)c1)c1ccc(Cl)cc1` [Example 151, 4-chloro-N-[3-(2-pyridin-4-ylpyrazolo[1,5-a]pyrimidin-7-yl)phenyl]benzamide], the IC50 [1] is reported as over 10 µM and the inhibition at 10 µM is reported as 33%.

In the case of `O=C(Nc1cccc(-c2ccnc3cc(-c4cccnc4)nn23)c1)c1cccc(C(F)(F)F)c1` [Example 152, N-[3-(2-pyridin-3-ylpyrazolo[1,5-a]pyrimidin-7-yl)phenyl]-3-(trifluoromethyl)benzamide], the IC50 [1] is reported as over 10 µM.

In the case of `O=C(Nc1cccc(-c2ccnc3ccnn23)c1)c1cccc(C(F)(F)F)c1` [Example 153, N-(3-pyrazolo[1,5-a]pyrimidin-7-ylphenyl)-3-(trifluoromethyl)benzamide], the IC50 [1] is reported as over 10 µM and the inhibition at 10 µM is reported as 31%.

In the case of `O=C(Nc1cccc(-c2ccnc3c(-c4cccnc4)cnn23)c1)c1cccc(C(F)(F)F)c1` [Example 155, N-[3-(3-pyridin-3-ylpyrazolo[1,5-a]pyrimidin-7-yl)phenyl]-3-(trifluoromethyl)benzamide], the IC50 is reported as 0.095 µM and the inhibition at 10 µM is reported as 103%.

`Nc1cccc(-c2cnn3c(-c4cccc(NC(=O)c5cccc(C(F)(F)F)c5)c4)ccnc23)c1` [Example 156, N-{3-[3-(3-aminophenyl)pyrazolo[1,5-a]pyrimidin-7-yl]phenyl}-3-(trifluoromethyl)benzamide] gave an IC50 of 0.1 µM and an inhibition at 10 µM of 86%.

`CN(C)c1ccc(-c2cnn3c(-c4cccc(NC(=O)c5cccc(C(F)(F)F)c5)c4)ccnc23)cc1` [Example 157, N-(3-{3-[4-(dimethylamino)phenyl]pyrazolo[1,5-a]pyrimidin-7-yl}phenyl)-3-(trifluoromethyl)benzamide] was tested, and the IC50 was 0.3 µM and the inhibition at 10 µM was 66%.

`O=C(Nc1cccc(-c2ccnc3c(-c4ccc(Cl)cc4)cnn23)c1)c1cccc(C(F)(F)F)c1` [Example 158, N-{3-[3-(4-chlorophenyl)pyrazolo[1,5-a]pyrimidin-7-yl]phenyl}-3-(trifluoromethyl)benzamide] showed an IC50 [1] of over 10 µM and an inhibition at 10 µM of 39%.

For `Cc1ccc(-c2cnn3c(-c4cccc(NC(=O)c5cccc(C(F)(F)F)c5)c4)ccnc23)cc1` [Example 160, N-{3-[3-(4-methylphenyl)pyrazolo[1,5-a]pyrimidin-7-yl]phenyl}-3-(trifluoromethyl)benzamide], the inhibition at 10 µM was 51%.

`Cc1ccc(C(=O)Nc2cccc(-c3ccnc4c(Br)cnn34)c2)cc1C(F)(F)F` [Example 161, N-[3-(3-bromopyrazolo[1,5-a]pyrimidin-7-yl)phenyl]-4-methyl-3-(trifluoromethyl)benzamide] gave an IC50 of 0.67 µM and an inhibition at 10 µM of 87%.

With `COc1ccc(C(=O)Nc2cccc(-c3ccnc4c(Br)cnn34)c2)cc1C(F)(F)F` [Example 162, N-[3-(3-bromopyrazolo[1,5-a]pyrimidin-7-yl)phenyl]-4-methoxy-3-(trifluoromethyl)benzamide] the IC50 was 2.1 µM and the inhibition at 10 µM was 75%.

`O=C(Nc1cccc(-c2ccnc3c(Br)cnn23)c1)c1ccc(F)c(C(F)(F)F)c1` [Example 163, N-[3-(3-bromopyrazolo[1,5-a]pyrimidin-7-yl)phenyl]-4-fluoro-3-(trifluoromethyl)benzamide] gave an IC50 [1] of 4.2 µM and an inhibition at 10 µM of 74%.

Work on `O=C(Nc1cccc(-c2ccnc3c(Br)cnn23)c1)c1ccc(Cl)c(C(F)(F)F)c1` [Example 164, N-[3-(3-bromopyrazolo[1,5-a]pyrimidin-7-yl)phenyl]-4-chloro-3-(trifluoromethyl)benzamide] yielded an IC50 [1] of over 10 µM and an inhibition at 10 µM of 58%.

`O=C(Nc1cccc(-c2ccnc3c(Br)cnn23)c1)c1ccc(Cl)c(Cl)c1` [Example 165, N-[3-(3-bromopyrazolo[1,5-a]pyrimidin-7-yl)phenyl]-3,4-dichlorobenzamide] gave an IC50 [1] of over 10 µM and an inhibition at 10 µM of 64%.

In the case of `O=C(Nc1cccc(-c2ccnc3c(Br)cnn23)c1)Nc1cccc(C(F)(F)F)c1` [Example 166, N-[3-(3-bromopyrazolo[1,5-a]pyrimidin-7-yl)phenyl]-N′-[3-(trifluoromethyl)phenyl]urea], the IC50 [1] is reported as 1.33 µM and the inhibition at 10 µM is reported as 94%.

In the case of `O=C(Nc1cccc(-c2ccnc3c(Br)cnn23)c1)Nc1ccc(F)c(C(F)(F)F)c1` [Example 167, N-[3-(3-bromopyrazolo[1,5-a]pyrimidin-7-yl)phenyl]-N′-[4-fluoro-3-(trifluoromethyl)phenyl]urea], the IC50 [1] is reported as 4.99 µM and the inhibition at 10 µM is reported as 59%.

For `O=C(Nc1cccc(-c2ccnc3c(Br)cnn23)c1)Nc1ccc(Cl)c(Cl)c1` [Example 168, N-[3-(3-bromopyrazolo[1,5-a]pyrimidin-7-yl)phenyl]-N′-(3,4-dichlorophenyl)urea], the IC50 [1] was 2.41 µM and the inhibition at 10 µM was 58%.

Compound `Cc1ccc(C(=O)Nc2cccc(-c3ccnc4c(-c5cccnc5)cnn34)c2)cc1C(F)(F)F` [Example 169, 4-methyl-N-[3-(3-pyridin-3-ylpyrazolo[1,5-a]pyrimidin-7-yl)phenyl]-3-(trifluoromethyl)benzamide] has an IC50 of 0.07 µM and an inhibition at 10 µM of 96%.

Compound `COc1ccc(C(=O)Nc2cccc(-c3ccnc4c(-c5cccnc5)cnn34)c2)cc1C(F)(F)F` [Example 170, 4-methoxy-N-[3-(3-pyridin-3-ylpyrazolo[1,5-a]pyrimidin-7-yl)phenyl]-3-(trifluoromethyl)benzamide] has an IC50 of 0.14 µM and an inhibition at 10 µM of 96%.

In the case of `O=C(Nc1cccc(-c2ccnc3c(-c4cccnc4)cnn23)c1)c1ccc(F)c(C(F)(F)F)c1` [Example 171, 4-fluoro-N-[3-(3-pyridin-3-ylpyrazolo[1,5-a]pyrimidin-7-yl)phenyl]-3-(trifluoromethyl)benzamide], the IC50 [1] is reported as 0.38 µM and the inhibition at 10 µM is reported as 87%.

`O=C(Nc1cccc(-c2ccnc3c(-c4cccnc4)cnn23)c1)c1ccc(Cl)c(C(F)(F)F)c1` [Example 172, 4-chloro-N-[3-(3-pyridin-3-ylpyrazolo[1,5-a]pyrimidin-7-yl)phenyl]-3-(trifluoromethyl)benzamide] showed an IC50 [1] of 1.01 µM and an inhibition at 10 µM of 81%.

With `O=C(Nc1cccc(-c2ccnc3c(-c4cccnc4)cnn23)c1)Nc1cccc(C(F)(F)F)c1` [Example 173, N-[3-(3-pyridin-3-ylpyrazolo[1,5-a]pyrimidin-7-yl)phenyl]-N′-[3-(trifluoromethyl)phenyl]urea] the IC50 [1] was 0.44 µM and the inhibition at 10 µM was 85%.

For `O=C(Nc1cccc(-c2ccnc3c(-c4cccnc4)cnn23)c1)Nc1ccc(Cl)c(C(F)(F)F)c1` [Example 174, N-[4-chloro-3-(trifluoromethyl)phenyl]-N′-[3-(3-pyridin-3-ylpyrazolo[1,5-a]pyrimidin-7-yl)phenyl]urea], the IC50 [1] was 0.11 µM and the inhibition at 10 µM was 96%.

`O=C(Nc1cccc(-c2ccnc3c(-c4cccnc4)cnn23)c1)Nc1ccc(Cl)c(Cl)c1` [Example 175, N-(3,4-dichlorophenyl)-N′-[3-(3-pyridin-3-ylpyrazolo[1,5-a]pyrimidin-7-yl)phenyl]urea] gave an IC50 [1] of 0.45 µM and an inhibition at 10 µM of 70%.

`CCOC(=O)c1cnn2c(-c3cccc(NC(=O)c4cccc(C(F)(F)F)c4)c3)c(C)cnc12` [Example 176, ethyl 6-methyl-7-(3-{[3-(trifluoromethyl)benzoyl]amino}phenyl)pyrazolo[1,5-a]pyrimidine-3-carboxylate] showed an IC50 [1] of 0.36 µM and an inhibition at 10 µM of 86%.
